# Patent US20240425511A1, “HETEROCYCLIC COMPOUNDS FOR USE IN THE TREATMENT OF CANCER” (ARTIOS PHARMA LIMITED, priority 2021, published 2024)
# Biological target: Human Polθ polymerase domain (aa1820-2590) (Homo sapiens (Human), UniProt O75417)
# Test: Polθ Polymerase Domain WT Ki Assay (PicoGreen assay)
# Assay type: biochemical
# Conditions: average of repeat determinations; 100 nM DNA substrate, 50 μM dNTPs, 0.156 nM Polθ
# Method: A PicoGreen assay was used to measure the K, values of reversible compounds that inhibit the activity of Polθ in vitro.
# Human Polθ polymerase domain (aa1820-2590) was expressed in E. Coli, purified, aliquoted and stored at −80° C. until required. Polθ substrate was generated from a 1.2:1 mix of DNA II Short to DNA II Long to give a final concentration of […] substrate in annealing buffer (20 mM Tris pH 7.5, 50 mM NaCl). The substrate was heated in 50 mL aliquots to 95° C. in a heating block for 5 min before the heating block switched off, the reaction left to cool to rt and stored at −20° C. until required.
# Assay measurements were performed with 1× buffer comprising 25 mM Tris pH 7.5, 12.5 mM NaCl, […], 5% (v/v) glycerol, 0.01% v/v Triton x-100, 0.1 mg/ml BSA, 1 mM DTT. […]
# To stop the reaction, 5 μL of a solution containing 25 mM Tris-HCl pH 7.5 and 20 mM EDTA was added at […] (t=0, 15, 30, 60, 90, 120, 150, 180 mins) using the Tempest's time delay function. […] After completing the assay, 5 μL of detection reagent (25 mM Tris-HCl pH 7.5 and 2.5% (v/v) PicoGreen) was dispensed into the wells using a Tempest liquid handler (Formulatrix) and plates subsequently read on the CLARIOstar Plus (BMG Labtech) using the default optical settings for fluorescein and the auto gain/focus settings. […]
# Chain of Human Polθ polymerase domain (aa1820-2590) (O75417 1820-2590): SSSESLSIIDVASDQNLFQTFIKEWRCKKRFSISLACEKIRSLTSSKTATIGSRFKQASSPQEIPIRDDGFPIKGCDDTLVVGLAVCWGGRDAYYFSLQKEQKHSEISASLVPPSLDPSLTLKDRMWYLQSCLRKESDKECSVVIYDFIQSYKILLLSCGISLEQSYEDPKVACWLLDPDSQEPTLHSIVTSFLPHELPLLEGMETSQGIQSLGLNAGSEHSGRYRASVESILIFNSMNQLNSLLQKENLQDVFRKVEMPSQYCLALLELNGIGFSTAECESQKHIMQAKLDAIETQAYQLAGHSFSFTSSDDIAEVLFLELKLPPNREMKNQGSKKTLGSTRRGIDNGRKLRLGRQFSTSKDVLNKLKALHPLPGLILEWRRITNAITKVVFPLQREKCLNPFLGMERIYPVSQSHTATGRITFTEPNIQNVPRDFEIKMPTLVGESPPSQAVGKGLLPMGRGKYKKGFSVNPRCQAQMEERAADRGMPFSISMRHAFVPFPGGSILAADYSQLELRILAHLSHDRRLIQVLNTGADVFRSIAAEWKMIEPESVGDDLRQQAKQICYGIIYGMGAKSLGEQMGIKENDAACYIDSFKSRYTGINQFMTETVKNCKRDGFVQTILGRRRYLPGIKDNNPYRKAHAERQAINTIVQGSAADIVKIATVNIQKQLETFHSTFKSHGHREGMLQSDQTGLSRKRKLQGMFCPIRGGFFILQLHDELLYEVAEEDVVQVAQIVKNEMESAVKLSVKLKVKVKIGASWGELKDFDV
smiles,measurement,value
"Cc1cc(C(F)(F)F)cc(N2C(=O)C[C@@H]3CN(CCN4CCN(C)CC4)c4c(C)cccc4N(C)C(=O)[C@H]32)n1 [Example 1, (3aR,11aS)-6,10-Dimethyl-1-(6-methyl-4-(trifluoromethyl)pyridin-2-yl)-5-(2-(4-methylpiperazin-1-yl)ethyl)-1,3a,4,5,10,11a-hexahydro-2H-benzo[b]pyrrolo[2,3-f][1,4]diazocine-2,11(3H)-dione]",Ki,1.27 nM
